Drawing on article PMC8710297, “Identification of potent SENP1 inhibitors that inactivate SENP1/JAK2/STAT signaling pathway and overcome platinum drug resistance in ovarian cancer” (Clinical and Translational Medicine, 2021), this text covers solubility for one compound.

The data set can be described thus: Water solubility determination (HPLC). Format: physicochemical. Conditions: thermodynamic from solid, ultra-pure water, room temperature. The procedure: at room tem p eratu re fo r 2 h. After centrifu gation at 3000×g fo r 10 min, the supernatant wa s transferred into a sample vial and dried with Sp ee d vac (Fish er Scientific). So lu ti on s fo r standards were prepared by using a series of different concentrations of ursolic acid (i.e., 0.1, 0.5, 1.0, 2. 0, 5.0 ug /mL in methanol ). Ea c h sample was in jec ted fo r analysis by liq uid chromatography‐tan dem mass spectrometry (UPLC‐MS/MS) with multip le react io n monitor ing (MRM) mode. (2) UPLC‐MS/MS analysis Sa m ples were analyzed wi t h Acquity UPLC syste m (Waters) cou ple d wi t h a Q‐TRAP 6500 mass spectrometer (Sciex). Spe cifically, 5 μL of each sample wa s loaded onto a C18 column (Waters Acquity UPLC BEH C18 1.7μm, 2.1mm x 50 mm). […]
Mass spectra were recorded with Analyst TF 1.6.2 software in th e MRM mode (Q1 mass: 455 Da, Q3 mass:455.1 Da , Time:100 ms, CE: ‐20, DP: ‐50: EP:‐ 7, CXP: ‐12). (3) Data analysis: Data files we re analyzed with quantitated with the “Quantitation Method” in th e An al yst software […]
slid e at a flow ra te of 25 μL/ min wi th 110 s contac t time and 250 s dissociation time. Th e background re s p o ns e was recorded using th e refere nce flow channel, and the background data wa s subtracted from the data fro m each injection sample. […]

Values after ≈ are worked out from the molar mass of the structure shown.

`C[C@H]1[C@H](C)CC[C@]2(C(=O)NCC(=O)N(C)CCO)CC[C@]3(C)C(=CC[C@@H]4[C@@]5(C)CC[C@H](O)C(C)(C)[C@@H]5CC[C@]43C)[C@H]12` [UAMMC9]: the solubility at 24 h was 39.7 µg/mL (≈ 69.5 µM).

What is called solubility is how much of the substance goes into solution per volume. A lower solubility goes with a poorly soluble substance.
